From ChEMBL document CHEMBL5370557, “Structure-based discovery of IHMT-IDH1-053 as a potent irreversible IDH1 mutant selective inhibitor” (Eur J Med Chem, 2023)

What was measured:
[1] = target: T1, Isocitrate dehydrogenase [NADP] cytoplasmic (Homo sapiens, UniProt O75874, R132H); experiment: Inhibition of IDH1 R132H mutant (unknown origin) expressed in Escherichia coli BL21 (DE3) assessed as NADPH consumption using alpha-KG as substrate measured after 60 mins
[2] = target: T1, Isocitrate dehydrogenase [NADP] cytoplasmic; experiment: Inhibition of IDH1 R132H mutant (unknown origin) expressed in HEK293T cells assessed as inhibition of 2-HG generation measured after 48 hrs by LC-MS/MS analysis; type: cell-based
[3] = target: T2, Isocitrate dehydrogenase [NADP], mitochondrial (Homo sapiens, UniProt P48735); experiment: Inhibition of wild type IDH2 (unknown origin) expressed in Escherichia coli BL21 (DE3) assessed as NADPH consumption using alpha-KG as substrate measured after 60 mins
T2 sequence (P48735 whole entry): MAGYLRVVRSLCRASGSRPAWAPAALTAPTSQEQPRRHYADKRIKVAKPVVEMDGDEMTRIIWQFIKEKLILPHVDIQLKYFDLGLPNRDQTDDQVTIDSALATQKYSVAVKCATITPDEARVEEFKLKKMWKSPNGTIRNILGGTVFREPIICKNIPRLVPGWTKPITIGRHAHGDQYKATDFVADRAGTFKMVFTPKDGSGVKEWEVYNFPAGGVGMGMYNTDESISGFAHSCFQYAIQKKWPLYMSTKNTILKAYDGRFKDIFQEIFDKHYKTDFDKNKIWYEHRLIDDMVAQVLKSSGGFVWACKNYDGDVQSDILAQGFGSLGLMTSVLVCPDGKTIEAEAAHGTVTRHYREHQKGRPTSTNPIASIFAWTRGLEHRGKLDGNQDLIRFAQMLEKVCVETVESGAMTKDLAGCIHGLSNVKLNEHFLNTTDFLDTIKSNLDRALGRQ

[4] = target: Isocitrate dehydrogenase [NADP], mitochondrial (Homo sapiens, UniProt P48735, R172K); experiment: Inhibition of IDH2 R172K mutant (unknown origin) expressed in Escherichia coli BL21 (DE3) assessed as NADPH consumption using alpha-KG as substrate measured after 60 mins
Chain of Isocitrate dehydrogenase [NADP], mitochondrial (Homo sapiens, UniProt P48735, R172K) (P48735 40-452 R172K limits assumed): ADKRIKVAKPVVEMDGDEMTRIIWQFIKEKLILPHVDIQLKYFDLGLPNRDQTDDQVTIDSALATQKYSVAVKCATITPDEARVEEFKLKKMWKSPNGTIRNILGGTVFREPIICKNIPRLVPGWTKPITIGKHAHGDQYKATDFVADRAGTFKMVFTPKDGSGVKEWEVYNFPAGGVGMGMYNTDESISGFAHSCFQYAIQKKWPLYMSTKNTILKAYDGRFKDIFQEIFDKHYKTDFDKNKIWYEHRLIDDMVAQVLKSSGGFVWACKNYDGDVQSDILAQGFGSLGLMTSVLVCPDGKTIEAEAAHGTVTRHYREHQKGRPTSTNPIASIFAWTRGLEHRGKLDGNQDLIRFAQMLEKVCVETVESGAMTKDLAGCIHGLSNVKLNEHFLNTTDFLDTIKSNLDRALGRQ

[5] = target: Isocitrate dehydrogenase [NADP], mitochondrial (Homo sapiens, UniProt P48735, R140Q); experiment: Inhibition of IDH2 R140Q mutant (unknown origin) expressed in Escherichia coli BL21 (DE3) assessed as NADPH consumption using alpha-KG as substrate measured after 60 mins
Chain of Isocitrate dehydrogenase [NADP], mitochondrial (Homo sapiens, UniProt P48735, R140Q) (P48735 40-452 R140Q limits assumed): as the sequence (P48735 40-452 R172K limits assumed) above, with R101Q, K133R counted along it

T1 sequence (O75874 2-414 R132H limits assumed): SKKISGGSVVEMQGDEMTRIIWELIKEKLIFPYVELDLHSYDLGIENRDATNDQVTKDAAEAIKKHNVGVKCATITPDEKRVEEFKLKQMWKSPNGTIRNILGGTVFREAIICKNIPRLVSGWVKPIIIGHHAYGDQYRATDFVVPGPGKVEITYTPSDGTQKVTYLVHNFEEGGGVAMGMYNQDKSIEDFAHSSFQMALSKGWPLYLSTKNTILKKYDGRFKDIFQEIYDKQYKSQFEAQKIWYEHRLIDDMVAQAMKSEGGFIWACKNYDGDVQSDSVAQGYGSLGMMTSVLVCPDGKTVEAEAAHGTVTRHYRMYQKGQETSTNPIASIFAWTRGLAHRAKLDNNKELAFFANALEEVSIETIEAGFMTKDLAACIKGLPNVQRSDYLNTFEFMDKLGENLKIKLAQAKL

Compound | IC50 [1] [nM] | IC50 [2] [nM] | further results
CCC(=O)Nc1cc(Nc2ccc([C@H](C)Nc3ncc(F)c(N4C(=O)OC[C@@H]4C(C)C)n3)cc2)ccc1N1CCOCC1 | 77 | 126 | –
C=CS(=O)(=O)Nc1ccc(Nc2ccc([C@H](C)Nc3ncc(F)c(N4C(=O)OC[C@@H]4C(C)C)n3)cc2)cc1N(C)C | 48 | 1250 | –
C=CC(=O)Nc1ccc(Nc2ccc([C@H](C)Nc3ncc(F)c(N4C(=O)OC[C@@H]4C(C)C)n3)cc2)cc1N1CCOCC1 | 976 | 331 | –
CCS(=O)(=O)N1CCC(Nc2ccc([C@H](C)Nc3nccc(N4C(=O)OC[C@@H]4C(C)C)n3)cc2)CC1 | 594 | – | –
C=CS(=O)(=O)N1CCC(Nc2ccc([C@H](C)Nc3nccc(N4C(=O)OC[C@@H]4C(C)C)n3)cc2)CC1 | 161 | 171 | –
CCC(=O)Nc1cc(Nc2ccc([C@H](C)Nc3ncc(F)c(N4C(=O)OC[C@@H]4C(C)C)n3)cc2)ccc1N(C)C | 932 | – | –
C=CS(=O)(=O)Nc1ccc(Nc2ccc([C@H](C)Nc3nccc(N4C(=O)OC[C@@H]4C(C)C)n3)cc2)cc1N1CCN(CC)CC1 | 547 | – | –
N#Cc1ccnc(N2C(=O)CC[C@H]2C(=O)N(c2cncc(F)c2)[C@H](C(=O)NC2CC(F)(F)C2)c2ccccc2Cl)c1 [IVOSIDENIB] | – | – | IC50 [3]: > 10000 nM; IC50 [4]: > 10000 nM; IC50 [5]: > 10000 nM
C=CS(=O)(=O)Nc1cc(Nc2ccc([C@H](C)Nc3ncc(F)c(N4C(=O)OC[C@@H]4C(C)C)n3)cc2)ccc1N(C)C | 151 | 367 | –
CCC(=O)Nc1ccc(Nc2ccc([C@H](C)Nc3ncc(F)c(N4C(=O)OC[C@@H]4C(C)C)n3)cc2)cc1N1CCOCC1 | > 10000 | 10000 | –
C=CS(=O)(=O)Nc1ccc(Nc2ccc([C@H](C)Nc3ncc(F)c(N4C(=O)OC[C@@H]4C(C)C)n3)cc2)cc1N1CCOCC1 | 87 | 1500 | –
C=CC(=O)Nc1cc(-c2ccc([C@H](C)Nc3ncc(F)c(N4C(=O)OC[C@@H]4C(C)C)n3)cc2)ccc1N(C)C | 630 | – | –

Now from value to compound, other results behind:

IC50 [1] [nM] | IC50 [2] [nM] | Compound | further results
440 | 295 | C=CC(=O)NC1CCCN(c2ccc([C@H](C)Nc3ncc(F)c(N4C(=O)OC[C@@H]4C(C)C)n3)cc2)C1 (stereo not given in full) | –
2760 | – | CCC(=O)Nc1ccc(Nc2ccc([C@H](C)Nc3nccc(N4C(=O)OC[C@@H]4C(C)C)n3)cc2)cc1N1CCN(CC)CC1 | –
2770 | – | CCS(=O)(=O)Nc1ccc(Nc2ccc([C@H](C)Nc3ccc(C#N)cn3)cc2)cc1N(C)C | –
516 | – | CC(C)[C@H]1COC(=O)N1c1nc(N[C@@H](C)c2ccc(N3CCCC(NC(=O)CCl)C3)cc2)ncc1F (stereo not given in full) | –
87 | – | CC(C)[C@H]1COC(=O)N1c1nc(N[C@@H](C)c2ccc(N3CCC(NC(=O)CCl)CC3)cc2)ncc1F | –
198 | – | CCC(=O)NC1CCN(c2ccc([C@H](C)Nc3ncc(F)c(N4C(=O)OC[C@@H]4C(C)C)n3)cc2)CC1 | –
670 | – | CCC(=O)NC1CCCN(c2ccc([C@H](C)Nc3ncc(F)c(N4C(=O)OC[C@@H]4C(C)C)n3)cc2)C1 (stereo not given in full) | –
4490 | – | C=CS(=O)(=O)NC1CCN(c2ccc([C@H](C)Nc3ncc(C#N)cn3)cc2)CC1 | –
